Here are results for 13 molecules from US20240383923A1, “HETEROARYL DERIVATIVE AND USE THEREOF” (VORONOI INC., priority 2022, published 2024).

pIC50: −log10 of the molar value. Where two headings read alike, the source gives them in different places. Bounds are passed on as bounds.

The target of test [1] is T1, HER2 enzyme (Homo sapiens, UniProt P04626).
T1 construct: purchased Reaction Biology Corp. (San Diego, USA); outsourced assay service
Nature of the test: Biochemical kinase assay for HER2 (Reaction Biology Corp.). The settings on record: ATP 10 μM, 3-fold dilution from 10 μM. The method, then:
A biochemical kinase assay for HER2 was conducted through Reaction Biology Corp. (San Diego, USA).

Test [2] has as its system BT-474 cancer cells. Nature of the test: Inhibition of BT-474 cell proliferation (CellTiter-Glo). In kind it is cell-based. Particulars: Homo sapiens, BT-474 cells, 120 hours. The method in brief:
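BT-474 cells in RPMI-1640 with 20% FBS, seeded 48 h before dosing with 11 three-fold dilutions (final 0.2 nM to 10 μM). Viability read by CellTiter-Glo luminescence 120 h after treatment, triplicate tests. GI50 derived from growth rate (%) versus control.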
(In general: Cellular ATP, detected with luciferase, serves as a proxy for viable cell number.)

The test system of test [3] is N-87 cancer cells. Nature of the test: Inhibition of N-87 cell proliferation (CellTiter-Glo). The test is classed as cell-based. Particulars: N-87 cells, 72 hours. The method, then: N-87 cancer cells were cultured by using RPMI-1640 medium with 10% FBS. The N-87 cancer cells were seeded to a white clear bottom 96 well plate (Corning) at 5,000 cells per well 24 hours before the […] cancer cells were treated with Example Compounds. Example Compounds were diluted in dimethylsulfoxide (5-fold diluted, total 11 concentrations) and 0.5 μL each was injected so that the final concentration was […]. For the measurement of living cells, the cells were stored at room temperature for 10 minutes using the CellTiter-Glo cell viability reagent (Promega) after 72 hours after the treatment of Example Compounds, and then the luminescence intensity was measured using the reader (SynergyNeo, Biotek).
The result value was calculated as a cell growth rate (%) compared to a control group. Graphs were plotted and GI50 values were calculated using the GraphPad Prism version 8.0 program, and the results are shown in Table 18 below.

Test [4] concerns Ba/F3 HER2 WT cells. The experiment in a line: Inhibition of transduced Ba/F3 cell proliferation, HER2 WT. In kind it is cell-based. The settings on record: Mus musculus, BaF3, 72 hours, CellTiter-Glo. The method, then: (§1) Transduced Ba/F3 cells were cultured by adding 1 μg/mL of puromycin (Invitrogen) to a medium (RPMI-1640) containing 10% fetal bovine serum (FBS). 3,000 Ba/F3 HER2 WT cells were seeded to a white clear bottom 96 well plate (Corning) 24 hours before the Ba/F3 HER2 WT cells were treated with Example compounds. For Ba/F3 HER2 L755S, Ba/F3 HER2 L755P, Ba/F3 HER2 T862A, and Ba/F3 HER2 L869R/T798I cells, 5,000 cells each were seeded to a white clear bottom 96 well plate (Corning) 24 hours before the cells were treated with the compounds. Example Compounds were diluted in dimethylsulfoxide (3-fold diluted, total 11 concentrations) and 0.5 μL each was injected so that the final concentration was 0.2 nM to 10 μM. For the measurement of living cells, the cells were stored at room temperature for 10 minutes using the CellTiter-Glo cell viability reagent (Promega) after 72 hours after the treatment of Example Compounds, and then the luminescence intensity was measured using the reader (SynergyNeo, Biotek). Each test was repeated twice.
(§2) The result value was calculated as a cell growth rate (%) compared to a control group, and the GI50 values were calculated using the software (GraphPad Prism version 8.0), and the results are shown in Table 19 below.

Test [5] deals with Ba/F3 HER2 L755S cells. Nature of the test: Inhibition of transduced Ba/F3 cell proliferation, HER2 L755S. The test is classed as cell-based. Particulars: Mus musculus, BaF3, 72 hours, CellTiter-Glo. The method, then:
as §1, §2

The subject of test [6] is Ba/F3 HER2 L755P cells. The experiment in a line: Inhibition of transduced Ba/F3 cell proliferation, HER2 L755P. The test is classed as cell-based. Particulars: Mus musculus, BaF3, 72 hours, CellTiter-Glo. The protocol: as §1, §2
In test [7] the test system is Ba/F3 HER2 T862A cells. Nature of the test: Inhibition of transduced Ba/F3 cell proliferation, HER2 T862A. In kind it is cell-based. The settings on record: Mus musculus, BaF3, 72 hours, CellTiter-Glo. The protocol:
as §1, §2

Test [8] concerns Ba/F3 HER2 L869R/T798I cells. Nature of the test: Inhibition of transduced Ba/F3 cell proliferation, HER2 L869R/T798I. The test is classed as cell-based. The settings on record: Mus musculus, BaF3, 72 hours, CellTiter-Glo. The method, then: as §1, §2
Test [9] deals with HER2 mutant cancers. Particulars: cited from earlier work; for response of patients with HER2 mutation: phase 1 and 2 clinical trials; for objective response rate (ORR): SUMMIT clinical trial.

T1 sequence (P04626 23-1255): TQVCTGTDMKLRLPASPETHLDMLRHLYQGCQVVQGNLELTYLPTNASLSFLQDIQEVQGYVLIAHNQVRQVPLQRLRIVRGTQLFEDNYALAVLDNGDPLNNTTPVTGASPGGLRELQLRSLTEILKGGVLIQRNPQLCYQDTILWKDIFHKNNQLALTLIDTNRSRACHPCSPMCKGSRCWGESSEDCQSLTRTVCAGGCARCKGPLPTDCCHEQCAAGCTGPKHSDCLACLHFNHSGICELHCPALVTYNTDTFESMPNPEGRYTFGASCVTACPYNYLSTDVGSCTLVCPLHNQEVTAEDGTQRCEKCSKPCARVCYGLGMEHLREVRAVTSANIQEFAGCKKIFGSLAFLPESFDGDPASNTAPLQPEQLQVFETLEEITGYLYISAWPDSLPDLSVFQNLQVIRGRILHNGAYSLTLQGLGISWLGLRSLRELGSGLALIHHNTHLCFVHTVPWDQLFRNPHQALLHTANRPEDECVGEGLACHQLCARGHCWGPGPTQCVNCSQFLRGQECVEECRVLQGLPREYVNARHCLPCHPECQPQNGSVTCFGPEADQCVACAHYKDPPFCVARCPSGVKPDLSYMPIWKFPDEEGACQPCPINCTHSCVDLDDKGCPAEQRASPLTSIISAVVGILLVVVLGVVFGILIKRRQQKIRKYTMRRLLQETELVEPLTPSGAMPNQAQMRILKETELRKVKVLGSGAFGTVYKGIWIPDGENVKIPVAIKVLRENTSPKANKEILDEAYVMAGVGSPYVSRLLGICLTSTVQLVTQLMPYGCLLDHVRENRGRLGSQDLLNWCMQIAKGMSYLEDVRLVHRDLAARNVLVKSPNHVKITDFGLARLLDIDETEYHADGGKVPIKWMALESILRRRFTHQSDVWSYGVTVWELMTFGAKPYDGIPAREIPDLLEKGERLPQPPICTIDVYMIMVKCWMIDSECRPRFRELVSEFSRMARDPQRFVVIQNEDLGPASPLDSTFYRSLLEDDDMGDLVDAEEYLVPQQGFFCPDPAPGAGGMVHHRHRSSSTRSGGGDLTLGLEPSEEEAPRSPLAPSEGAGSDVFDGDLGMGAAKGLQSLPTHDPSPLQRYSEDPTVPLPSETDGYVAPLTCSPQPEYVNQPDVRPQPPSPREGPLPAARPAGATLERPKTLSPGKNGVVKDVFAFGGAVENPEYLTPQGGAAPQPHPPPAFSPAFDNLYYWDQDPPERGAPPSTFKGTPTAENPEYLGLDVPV

In the case of `C=CC(=O)N1CCC(Nc2cc3c(Nc4cc(Cl)c(Oc5cccc(F)c5)cc4OC)ncnc3cc2OC)CC1` [Example 2, 1-(4-((4-((5-chloro-4-(3-fluorophenoxy)-2-methoxyphenyl)amino)-7-methoxyquinazolin-6-yl)amino)piperidin-1-yl)prop-2-en-1-one], the pIC50 in test [1] is not below 7.30. Besides, the GI50 in test [2] and in test [3] was not above 0.05 µM throughout.
Molecule `C=CC(=O)N1CCC(Oc2cc3c(Nc4cc(Cl)c(Oc5cccc(F)c5)cc4OC)ncnc3cc2OC)CC1` [Example 8, 1-(4-((4-((5-chloro-4-(3-fluorophenoxy)-2-methoxyphenyl)amino)-7-methoxyquinazolin-6-yl)oxy)piperidin-1-yl)prop-2-en-1-one] gave a pIC50 in test [1] not below 7.30. Also, the GI50 in test [2] and in [3] was not above 0.05 µM each time.
`COc1cc2ncnc(Nc3cc(Cl)c(Oc4cccc(F)c4)cc3OC)c2cc1NC(=O)/C=C/CN(C)C` [Example 25, (E)-N-(4-((5-chloro-4-(3-fluorophenoxy)-2-methoxyphenyl)amino)-7-methoxyquinazolin-6-yl)-4-(dimethylamino)but-2-enamide] showed a pIC50 in [1] not below 7.30. Further, the GI50 in [2] and in [3] was not above 0.05 µM each time.
Molecule `COc1cc2ncnc(Nc3cc(C)c(Oc4ccn5ncnc5c4)cc3OC)c2cc1NC(=O)/C=C/[C@H]1CCCN1C` [Example 29, (R,E)-N-(4-((4-([1,2,4]triazolo[1,5-a]pyridin-7-yloxy)-2-methoxy-5-methylphenyl)amino)-7-methoxyquinazolin-6-yl)-3-(1-methylpyrrolidin-2-yl)acrylamide] had a pIC50 in [1] not below 7.30. The GI50 in [2] and in test [3] was not above 0.05 µM throughout.
On to `COc1cc2ncnc(Nc3cc(Cl)c(Oc4cccc(F)c4)cc3OC)c2cc1NC(=O)/C=C/[C@H]1CCCN1C` [Example 30, (R,E)-N-(4-((5-chloro-4-(3-fluorophenoxy)-2-methoxyphenyl)amino)-7-methoxyquinazolin-6-yl)-3-(1-methylpyrrolidin-2-yl)acrylamide], for which the pIC50 in test [1] was not below 7.30. In addition, the GI50 in test [2] and in test [3] was not above 0.05 µM throughout.
The molecule `COc1cc2ncnc(Nc3cc(Cl)c(Oc4ccccn4)cc3OC)c2cc1NC(=O)/C=C/[C@H]1CCCN1C` [Example 33, (R,E)-N-(4-((5-chloro-2-methoxy-4-(pyridin-2-yloxy)phenyl)amino)-7-methoxyquinazolin-6-yl)-3-(1-methylpyrrolidin-2-yl)acrylamide] had a pIC50 in [1] not below 7.30. For the same molecule, the GI50 in [2] and in [3] was not above 0.05 µM throughout.
In [1], `COc1cc2ncnc(Nc3cc(Cl)c(Oc4cccc(F)c4)cc3OC)c2cc1NC(=O)/C(F)=C\[C@H]1CCCN1C` [Example 42, (R,E)-N-(4-((5-chloro-4-(3-fluorophenoxy)-2-methoxyphenyl)amino)-7-methoxyquinazolin-6-yl)-2-fluoro-3-(1-methylpyrrolidin-2-yl)acrylamide] gave a pIC50 not below 7.30. Moreover, the GI50 in test [2], in test [3], in test [4], in test [5], in [6] and in test [7] was not above 0.05 µM in each case. For the same molecule, the concentration for 50% growth inhibition (GI50) in test [8] is not above 0.05 µM.
As to `COc1cc2ncnc(Nc3cc(F)c(Oc4ccn5ncnc5c4)cc3OC)c2cc1NC(=O)/C(F)=C/[C@H]1CCCN1C` [Example 50, (R,Z)—N-(4-((4-([1,2,4]triazolo[1,5-a]pyridin-7-yloxy)-5-fluoro-2-methoxyphenyl)amino)-7-methoxyquinazolin-6-yl)-2-fluoro-3-(1-methylpyrrolidin-2-yl)acrylamide], in test [1], the pIC50 is not below 7.30. Besides, the GI50 in test [2], in [3], in test [4], in [5], in test [6] and in test [7] was not above 0.05 µM throughout. Further, in [8], the GI50 is not above 0.05 µM.
As for `COc1cc(Oc2ccn3ncnc3c2)c(C)cc1Nc1ncnc2ccc(NC(=O)/C(F)=C/[C@H]3CCCN3C)cc12` [Example 92, (R,Z)—N-(4-((4-([1,2,4]triazolo[1,5-a]pyridin-7-yloxy)-2-methoxy-5-methylphenyl)amino)quinazolin-6-yl)-2-fluoro-3-(1-methylpyrrolidin-2-yl)acrylamide], the pIC50 in test [1] was not below 7.30. Also, the GI50 in test [2] is not above 0.05 µM.
Molecule `COc1cc2ncnc(Nc3cc(C)c(Oc4ccn5ncnc5c4)cc3OC)c2cc1NC(=O)/C(F)=C/[C@H]1CCCN1C` [Example 111, (R,Z)—N-(4-((4-([1,2,4]triazolo[1,5-a]pyridin-7-yloxy)-2-methoxy-5-methylphenyl)amino)-7-methoxyquinazolin-6-yl)-2-fluoro-3-(1-methylpyrrolidin-2-yl)acrylamide] had a pIC50 in test [1] not below 7.30. For the same molecule, the GI50 in test [2] and in [3] was not above 0.05 µM each time.
In [1], `COc1cc2ncnc(Nc3cc(Cl)c(Oc4ccn5ncnc5c4)cc3OC)c2cc1NC(=O)/C(F)=C/[C@H]1CCCN1C` [Example 128, (R,Z)—N-(4-((4-([1,2,4]triazolo[1,5-a]pyridin-7-yloxy)-5-chloro-2-methoxyphenyl)amino)-7-methoxyquinazolin-6-yl)-2-fluoro-3-(1-methylpyrrolidin-2-yl)acrylamide] gave a pIC50 not below 7.30. The GI50 in test [2], in test [3], in [4], in test [5], in test [6] and in test [7] was not above 0.05 µM throughout. Moreover, in test [8], the GI50 is not above 0.05 µM.
Regarding `COc1cc2ncnc(Nc3ccc(F)c(Cl)c3)c2cc1NC(=O)/C=C/CN1CCCCC1` [dacomitinib], the “response of patients with HER2 mutation” value in [9] is recorded as “partial responses”.
Consider `CCOc1cc2ncc(C#N)c(Nc3ccc(OCc4ccccn4)c(Cl)c3)c2cc1NC(=O)/C=C/CN(C)C` [neratinib], for which the “objective response rate (ORR)” value in test [9] (HER2 mutant breast cancer patients) is listed as 24%; in [9] (HER2 mutant lung cancer patients) it was 3.8%; in test [9] (other cancers having HER2 mutations), 0%. The “response of patients with HER2 mutation” value in test [9] was “partial responses”.

In general, pIC50 refers to the negative decadic logarithm of the IC50, by convention in mol/L. For orientation: GI50 means the concentration that inhibits growth by half.
